{
  "source": "ChEMBL document CHEMBL2157937",
  "about": "“Discovery and optimization of C-2 methyl imidazopyrrolopyridines as potent and orally bioavailable JAK1 inhibitors with selectivity over JAK2” (J Med Chem, 2012)",
  "key": {"in vivo [1]": {"assay": "in vivo", "conditions": "Sprague-Dawley, rat, iv, 0.4 mg/kg"}, "in vivo [2]": {"assay": "in vivo", "conditions": "Sprague-Dawley, rat, plasma, po, 2 mg/kg"}, "in vivo [3]": {"assay": "in vivo", "conditions": "Sprague-Dawley, rat, po, 0.4 mg/kg"}, "in vivo [4]": {"assay": "in vivo", "conditions": "Sprague-Dawley, rat, po, 2 mg/kg"}, "physchem [5]": {"assay": "physchem", "conditions": "octanol/PBS buffer, pH 7.2"}, "in vitro [6]": {"assay": "in vitro", "conditions": "human, hepatocytes"}, "physchem [7]": {"assay": "physchem", "conditions": "buffer, pH 7.4"}, "physchem [8]": {"assay": "physchem", "conditions": "buffer, pH 2"}, "in vitro [9]": {"assay": "in vitro", "conditions": "Sprague-Dawley, rat, hepatocytes"}, "Rattus norvegicus": {"organism": "Rattus norvegicus", "conditions": "in vivo, po, 2 mg/kg"}, "[10]": {"assay": "Clearance in rat at 2 mg/kg, po", "format": "ADME, organism-based", "set-up": "dose 2 mg/kg, route oral", "conditions": "in vivo"}, "[11]": {"assay": "AUC in rat at 2 mg/kg, po", "format": "ADME, organism-based", "set-up": "dose 2 mg/kg, route oral", "conditions": "plasma"}, "in vivo [12]": {"assay": "in vivo", "conditions": "rat, po, 2 mg/kg"}, "in vivo [13]": {"assay": "in vivo", "conditions": "rat, po, 2 mg/kg", "remark": "listed apart in the source"}},
  "data": [
    {"smiles": "Cc1nc2cnc3[nH]ccc3c2n1C1CCNCC1", "values": [
      {"measurement": "clearance", "setting": "in vivo [1]", "result": 43, "unit": "mL/min/kg"},
      {"measurement": "AUC", "setting": "in vivo [2]", "result": 0.12, "unit": "µM·h"},
      {"measurement": "Cmax", "setting": "in vivo [3]", "result": 60, "unit": "nM"},
      {"measurement": "bioavailability", "setting": "in vivo [4]", "result": 4, "unit": "%"},
      {"measurement": "logD at 1 h, 10000 µM", "setting": "physchem [5]", "result": 0.1},
      {"measurement": "half-life at 1 µM", "setting": "in vitro [6]", "result": "> 8", "unit": "h"},
      {"measurement": "solubility thermodynamic at 24 h", "setting": "physchem [7]", "result": "> 1500", "unit": "µM"},
      {"measurement": "solubility thermodynamic at 24 h", "setting": "physchem [8]", "result": "> 5000", "unit": "µM"},
      {"measurement": "half-life at 1 µM", "setting": "in vitro [9]", "result": "> 8", "unit": "h"}
    ]},
    {"smiles": "Cc1nc2cnc3[nH]ccc3c2n1C1CCN(CCC#N)CC1", "values": [
      {"measurement": "logD at 1 h, 10000 µM", "setting": "physchem [5]", "result": 1.3},
      {"measurement": "half-life at 1 µM", "setting": "in vitro [6]", "result": "> 8", "unit": "h"}
    ]},
    {"smiles": "Cc1nc2cnc3[nH]ccc3c2n1[C@H]1CCCOC1", "values": [
      {"measurement": "logD at 1 h, 10000 µM", "setting": "physchem [5]", "result": 1.8},
      {"measurement": "half-life at 1 µM", "setting": "in vitro [6]", "result": 6.3, "unit": "h"}
    ]},
    {"smiles": "Cc1nc2cnc3[nH]ccc3c2n1[C@H]1CCCNC1", "values": [
      {"measurement": "logD at 1 h, 10000 µM", "setting": "physchem [5]", "result": 0.6},
      {"measurement": "half-life at 1 µM", "setting": "in vitro [6]", "result": "> 8", "unit": "h"}
    ]},
    {"smiles": "Cc1nc2cnc3[nH]ccc3c2n1[C@H]1CC[C@H](NCCC#N)CC1", "values": [
      {"measurement": "clearance", "setting": "in vivo [1]", "result": 80, "unit": "mL/min/kg"},
      {"measurement": "AUC", "setting": "in vivo [2]", "result": 0.18, "unit": "µM·h"},
      {"measurement": "Cmax", "setting": "in vivo [3]", "result": 150, "unit": "nM"},
      {"measurement": "bioavailability", "setting": "in vivo [4]", "result": 13, "unit": "%"},
      {"measurement": "logD at 1 h, 10000 µM", "setting": "physchem [5]", "result": 0.9},
      {"measurement": "half-life at 1 µM", "setting": "in vitro [6]", "result": "> 8", "unit": "h"},
      {"measurement": "solubility thermodynamic at 24 h", "setting": "physchem [7]", "result": "> 1500", "unit": "µM"},
      {"measurement": "solubility thermodynamic at 24 h", "setting": "physchem [8]", "result": "> 5000", "unit": "µM"},
      {"measurement": "half-life at 1 µM", "setting": "in vitro [9]", "result": "> 8", "unit": "h"}
    ]},
    {"smiles": "Cc1nc2cnc3[nH]ccc3c2n1[C@H]1CC[C@H](NS(C)(=O)=O)CC1", "values": [
      {"measurement": "logD at 1 h, 10000 µM", "setting": "physchem [5]", "result": 1.2},
      {"measurement": "half-life at 1 µM", "setting": "in vitro [6]", "result": "> 8", "unit": "h"}
    ]},
    {"smiles": "CC(=O)N[C@H]1CC[C@H](n2c(C)nc3cnc4[nH]ccc4c32)CC1", "values": [
      {"measurement": "logD at 1 h, 10000 µM", "setting": "physchem [5]", "result": 1.1}
    ]},
    {"smiles": "COC(=O)N[C@H]1CC[C@H](n2c(C)nc3cnc4[nH]ccc4c32)CC1", "values": [
      {"measurement": "clearance", "setting": "in vivo [1]", "result": 40, "unit": "mL/min/kg"},
      {"measurement": "AUC", "setting": "in vivo [2]", "result": 1.4, "unit": "µM·h"},
      {"measurement": "Cmax", "setting": "in vivo [3]", "result": 550, "unit": "nM"},
      {"measurement": "bioavailability", "setting": "in vivo [4]", "result": 54, "unit": "%"},
      {"measurement": "logD at 1 h, 10000 µM", "setting": "physchem [5]", "result": 2},
      {"measurement": "half-life at 1 µM", "setting": "in vitro [6]", "result": 3.9, "unit": "h"},
      {"measurement": "solubility thermodynamic at 24 h", "setting": "physchem [7]", "result": 40, "unit": "µM"},
      {"measurement": "solubility thermodynamic at 24 h", "setting": "physchem [8]", "result": 2300, "unit": "µM"},
      {"measurement": "half-life at 1 µM", "setting": "in vitro [9]", "result": 3.5, "unit": "h"}
    ]},
    {"smiles": "Cc1nc2cnc3[nH]ccc3c2n1[C@H]1CC[C@H](O)CC1", "values": [
      {"measurement": "logD at 1 h, 10000 µM", "setting": "physchem [5]", "result": 1.4},
      {"measurement": "half-life at 1 µM", "setting": "in vitro [6]", "result": "> 8", "unit": "h"}
    ]},
    {"smiles": "Cc1nc2cnc3[nH]ccc3c2n1[C@H]1CC[C@@H](O)CC1", "values": [
      {"measurement": "logD at 1 h, 10000 µM", "setting": "physchem [5]", "result": 1.4},
      {"measurement": "half-life at 1 µM", "setting": "in vitro [6]", "result": "> 8", "unit": "h"}
    ]},
    {"smiles": "Cc1nc2cnc3[nH]ccc3c2n1[C@@H]1CCNC[C@H]1F", "note": "(relative stereo)", "values": [
      {"measurement": "F", "setting": "Rattus norvegicus", "result": 172, "unit": "%"},
      {"measurement": "clearance", "setting": "in vivo [1]", "result": 40, "unit": "mL/min/kg"},
      {"measurement": "AUC", "setting": "in vivo [2]", "result": 5.3, "unit": "µM·h"},
      {"measurement": "Cmax", "setting": "in vivo [3]", "result": 4500, "unit": "nM"},
      {"measurement": "logD at 1 h, 10000 µM", "setting": "physchem [5]", "result": 1.2},
      {"measurement": "half-life at 1 µM", "setting": "in vitro [6]", "result": 1.8, "unit": "h"},
      {"measurement": "solubility thermodynamic at 24 h", "setting": "physchem [7]", "result": "> 1500", "unit": "µM"},
      {"measurement": "half-life at 1 µM", "setting": "in vitro [9]", "result": 1.6, "unit": "h"}
    ]},
    {"smiles": "Cc1nc2cnc3[nH]ccc3c2n1[C@@H]1CCNC[C@@H]1F", "note": "(relative stereo)", "values": [
      {"measurement": "logD at 1 h, 10000 µM", "setting": "physchem [5]", "result": 0.7}
    ]},
    {"smiles": "Cc1nc2cnc3[nH]ccc3c2n1[C@@H]1CCCC[C@H]1O", "note": "(relative stereo)", "values": [
      {"measurement": "logD at 1 h, 10000 µM", "setting": "physchem [5]", "result": 1.6},
      {"measurement": "half-life at 1 µM", "setting": "in vitro [6]", "result": "> 8", "unit": "h"}
    ]},
    {"smiles": "C[C@@H]1CCN(C(=O)CC#N)C[C@@H]1N(C)c1ncnc2[nH]ccc12", "note": "[TOFACITINIB]", "values": [
      {"measurement": "CL/F", "setting": "[10]", "result": 43, "unit": "mL/min/kg"},
      {"measurement": "AUC", "setting": "[11]", "result": 2.1, "unit": "µM·h"},
      {"measurement": "Cmax", "setting": "in vivo [12]", "result": 1700, "unit": "nM"},
      {"measurement": "bioavailability", "setting": "in vivo [13]", "result": 87, "unit": "%"}
    ]}
  ]
}
